Reference: patent US5284829A, “Synthetic tetrapeptides for the prevention of schistosome parasite infection” (priority 1991, dated 1994)
Where a SMILES comes first, the peptide text is derived from it. [ ]: non-standard residue; d: D form. The star is where a group is joined. pNA = O=[N+]([O-])c1ccc(N*)cc1; AMC = Cc1cc(=O)oc2cc(N*)ccc12; MeOSuc = COC(=O)CCC(=O)*; Nle = CCCC[C@H](N)C(=O)O; SBn = c1ccc(CS*)cc1; CH2Cl = ClC*

What follows are molecules tested against T1, cercarial protease (Schistosoma mansoni, UniProt P12546) (assay: not given). Details: substrate hydrolysis, 100 mM glycine/NaOH, 2 mM CaCl2, pH 9.0; Lineweaver-Burk.
T1 construct: Serine protease was isolated from the acetabular glands of cercariae as described previously in McKerrow et al., 1985; from tissue; host or cells: acetabular glands of cercariae
T1 sequence (P12546 28-264): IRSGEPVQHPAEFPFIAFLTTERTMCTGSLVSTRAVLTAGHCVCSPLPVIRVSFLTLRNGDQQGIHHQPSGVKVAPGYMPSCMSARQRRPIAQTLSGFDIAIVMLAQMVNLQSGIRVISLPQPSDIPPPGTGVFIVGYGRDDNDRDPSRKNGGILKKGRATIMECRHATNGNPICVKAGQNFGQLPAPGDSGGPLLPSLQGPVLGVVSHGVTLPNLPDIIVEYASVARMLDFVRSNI
Assay type: biochemical
Procedure: Serine protease was isolated from the acetabular glands of cercariae as described previously in McKerrow et al., 1985. J. Biol. Chem. 260, 3703-3707. All tetrapeptide thioester (Sbzl) substrates with the exception of MeO-Suc-Ala-Ala-Pro-Lys-Sbzl (a gift from Dr. James C. Powers, School of Chemistry, Georgia Institute of Technology, Atlanta, Ga.) were purchased from Enzyme System Products (Dublin, Calif.). Stock solutions (25 mM) of all substrates were prepared in dimethyl sulfoxide (DMSO). Rates of hydrolysis of substrates were measured by adding 1-10 μl of substrate and 25 μl of 1 mM 4,4'-dithiodipyridine in DMSO to buffer (100 mM glycine/NaOH, 2 mM CaCl2, pH 9.0) to give a total volume of 1.0 ml. A 10 μl enzyme sample was added to start the reaction. The increase in the absorbance at 325 nm was followed on a Gilford spectrophotometer. An ε value of 19,800 was used for the thiopyridine production.
Assays of paranitroanilide (pNA) and 7-amino-4-methyl coumarin (AMC) derivatized peptides were carried out as described in McKerrow et al., 1985. J. Biol. Chem. 260, 3703-3707. MeO-Suc-Ala-Ala-Pro-Phe-pNA was from Vega Biochemicals, Tucson, Az. MeO-Suc-Ala-Ala-Pro-Leu-pNA was a gift of Dr. David Agard, Department of Biochemistry, UCSF. All other pNA substrates were a gift of Dr. Corey Largman, Veterans Administration Hospital, Martinez, Calif. All AMC substrates were from Enzyme Systems Products, Dublin, Calif.
For each peptide substrate, the substrate concentration range was varied over ten-fold. The kinetic constants were determined from the initial rates of product formation using a least squares analysis according to method of Lineweaver-Burk (Lineweaver, H. & Burk, D. 1934. J. Am. Chem. Soc. 56, 658).

How did the Km turn out when `COC(=O)CCC(=O)N[C@@H](C)C(=O)N[C@@H](C)C(=O)N1CCC[C@H]1C(=O)N[C@@H](Cc1ccccc1)C(=O)Nc1ccc([N+](=O)[O-])cc1` [MeO-Suc-Ala-Ala-Pro-Phe-pNA] (MeOSuc-AAPF-pNA) was run?
Its Km is 119 µM.

Which Km does the source give for `COC(=O)CCC(=O)N[C@@H](Cc1ccccc1)C(=O)N[C@@H](C)C(=O)N1CCC[C@H]1C(=O)N[C@@H](Cc1ccccc1)C(=O)SCc1ccccc1` [MeO-Suc-Phe-Ala-Pro-Phe-Sbzl] (MeOSuc-FAPF-SBn) here?
Its Km is 244 µM.

`COC(=O)CCC(=O)N[C@@H](C)C(=O)N[C@@H](C)C(=O)N1CCC[C@H]1C(=O)N[C@@H](CCSC)C(=O)Nc1ccc([N+](=O)[O-])cc1` [MeO-Suc-Ala-Ala-Pro-Met-pNA] (MeOSuc-AAPM-pNA) was tested. Which Km did it give?
The Km was 300 µM.

`COC(=O)CCC(=O)N[C@@H](C)C(=O)N[C@@H](C)C(=O)N1CCC[C@H]1C(=O)N[C@@H](CC(C)C)C(=O)SCc1ccccc1` [MeO-Suc-Ala-Ala-Pro-Leu-Sbzl] (MeOSuc-AAPL-SBn) was tested. Which Km did it give?
The Km was 464 µM.

How did the Km turn out when `COC(=O)CCC(=O)N[C@@H](C)C(=O)N[C@@H](C)C(=O)N1CCC[C@H]1C(=O)N[C@@H](CC(C)C)C(=O)Nc1ccc([N+](=O)[O-])cc1` [MeO-Suc-Ala-Ala-Pro-Leu-pNA] (MeOSuc-AAPL-pNA) was run?
Its Km is 118 µM.

How did the Km turn out when `COC(=O)CCC(=O)N[C@@H](C)C(=O)N[C@@H](C)C(=O)N1CCC[C@H]1C(=O)N[C@@H](Cc1ccccc1)C(=O)SCc1ccccc1` [MeO-Suc-Ala-Ala-Pro-Phe-Sbzl] (MeOSuc-AAPF-SBn) was run?
Its Km is 96 µM.

How did the Km turn out when `CCCC[C@H](NC(=O)[C@@H]1CCCN1C(=O)[C@H](C)NC(=O)[C@H](C)NC(=O)CCC(=O)OC)C(=O)Nc1ccc([N+](=O)[O-])cc1` [MeO-Suc-Ala-Ala-Pro-Nle-pNA] (MeOSuc-AAP[Nle]-pNA) was run?
The Km was 300 µM.

Same assay, conditions: very low activity = absorbance change less than 0.001 O.D. in 40 min with 1.5 mM substrate

How did the “substrate hydrolysis activity (in words)” value turn out when `COC(=O)CCC(=O)N[C@@H](C)C(=O)N[C@@H](C)C(=O)N1CCC[C@H]1C(=O)N[C@@H](C)C(=O)Nc1ccc2c(C)cc(=O)oc2c1` [MeO-Suc-Ala-Ala-Pro-Ala-AMC] (MeOSuc-AAPA-{AMC}) was run?
Its value is “no activity”.

With `COC(=O)CCC(=O)N[C@@H](C)C(=O)N[C@@H](C)C(=O)N1CCC[C@H]1C(=O)N[C@H](C(=O)Nc1ccc2c(C)cc(=O)oc2c1)C(C)C` [MeO-Suc-Ala-Ala-Pro-Val-AMC] (MeOSuc-AAPV-{AMC}) as the molecule, how does the “substrate hydrolysis activity (in words)” value read?
The value was “no activity”.

With `COC(=O)CCC(=O)N[C@@H](C)C(=O)N[C@@H](C)C(=O)N1CCC[C@H]1C(=O)N[C@@H](CCCCN)C(=O)SCc1ccccc1` [MeO-Suc-Ala-Ala-Pro-Lys-Sbzl] (MeOSuc-AAPK-SBn) as the molecule, how does the “substrate hydrolysis activity (in words)” value read?
The value was “no activity”.

How did the “substrate hydrolysis activity (in words)” value turn out when `COC(=O)CCC(=O)N[C@@H](C)C(=O)N[C@@H](C)C(=O)N1CCC[C@H]1C(=O)N[C@@H](C)C(=O)SCc1ccccc1` [MeO-Suc-Ala-Ala-Pro-Ala-Sbzl] (MeOSuc-AAPA-SBn) was run?
The value was “no activity”.

With `COC(=O)CCC(=O)N[C@@H](Cc1c[nH]c2ccccc12)C(=O)N[C@@H](C)C(=O)N1CCC[C@H]1C(=O)N[C@@H](Cc1ccccc1)C(=O)SCc1ccccc1` [MeO-Suc-Trp-Ala-Pro-Phe-Sbzl] (MeOSuc-WAPF-SBn) as the molecule, how does the “substrate hydrolysis activity (in words)” value read?
Its value is “no activity”.

These molecules were tested on cercariae of Schistosoma mansoni (Puerto Rican strain) (assay: not given). Details: 50 micromolar.
Assay type: cell-based
Procedure: A modification of the assay developed by Clegg and Smithers (Clegg & Smithers, 1972. Int. J. Parasitol. 2, 79-98.) was used. Two Plexiglass chambers were manufactured which could be screwed together to hold a 25×25 mm section of skin at the interface of the two chambers. Human skin was obtained from autopsy (6-12 hours following death) or from amputation specimens received at the Department of Surgical Pathology, UCSF. The chamber below the skin was filled with tissue culture medium (DME H16) prewarmed to 37° C. After the skin was clamped, the upper chamber was filled with water containing 9000 cercariae of Schistosoma mansoni (Puerto Rican strain). Cercariae will follow a thermal gradient, and they are stimulated by the lipid on the surface of skin to invade (Stirewalt, 1974. Adv. Parasitol. 12, 115-180). After one hour exposure to cercariae the skin was removed, fixed in 10% phosphate buffered formalin for 24 h, and sectioned at 2 mm intervals. Following dehydration and routine paraffin embedding, 5μ sections were cut by microtome and stained with hemotoxylin and eosin. The number of cercariae which had invaded epidermis or dermis was counted in each section. Percent inhibition of invasion was calculated as [formula] All assays were done in triplicate and standard deviation of the mean calculated. […]

How did the “cercariae inhibited from invading skin” value turn out when `COC(=O)CCC(=O)N[C@@H](C)C(=O)N[C@@H](C)C(=O)N1CCC[C@H]1C(=O)N[C@@H](Cc1ccccc1)B(O)O` [MeO-Suc-Ala-Ala-Pro-(L)boro-Phe-OH] was run?
Its value is 50%.

`COC(=O)CCC(=O)N[C@@H](C)C(=O)N[C@@H](C)C(=O)N1CCC[C@H]1C(=O)N[C@H](Cc1ccccc1)B(O)O` [MeO-Suc-Ala-Ala-Pro-(D)boro-Phe-OH] was tested. Which “cercariae inhibited from invading skin” value did it give?
The value was “less than 20%”.

Each molecule was assayed against Cercarial Proteinase (Schistosoma mansoni, UniProt P12546) (assay: biochemical). Details: not given.
Chain of Cercarial Proteinase (P12546 28-264): as above
Procedure: The chloromethyl ketone-derivatized peptide inhibitors were designed by us based on our computer model, and synthesized for us by Enzyme System Products (Dublin, Calif.). Stock solutions of inhibitors (25 mM) were prepared in dimethyl sulfoxide (DMSO). The rate of irreversible inactivation of the protease was followed by withdrawing a 25 μl sample at 4 time intervals after mixing 125 μl of enzyme with 5 μl of inhibitor. […] B. 1962. J. Biol. Chem. 237, 3245) using MeO-Suc-Ala-Ala-Pro-Phe-Sbzl (Sbzl, benzyl thioester) as substrate. Inactivation constants for the boronic acid-derivatized peptides (MeO-Suc-Ala-Ala-Pro (D or L) boro-Phe-OH, a gift from Dr. Charles Kettner, E. I. Dupont de Nemours, Wilmington, Del.) were calculated using MeO-Suc-Ala-Ala-Pro-Phe-Sbzl as the substrate at 125 and 250 μM. Five different concentrations of each inhibitor were used per substrate concentration. The data were plotted according to Dixon and kinactivation values were extrapolated from the graph (Dixon, 1953. Biochem. J. 55, 170-171).
Therefore a boronic acid derivatized peptide analogous to the chloromethyl ketone derivatized Ala-Ala-Pro-Phe sequence was also tested. […] Stereoisomers of the same peptide were also evaluated.

For `COC(=O)CCC(=O)N[C@@H](C)C(=O)N[C@@H](C)C(=O)N1CCC[C@H]1C(=O)N[C@@H](Cc1ccccc1)C(=O)CCl` [MeO-Suc-Ala-Ala-Pro-Phe-CMK] (MeOSuc-AAPF-CH2Cl), which IC50 is on record?
Its IC50 is 0.088 µM.

With `COC(=O)CCC(=O)N[C@@H](C)C(=O)N[C@@H](C)C(=O)N1CCC[C@H]1C(=O)N[C@@H](C)C(=O)CCl` [MeO-Suc-Ala-Ala-Pro-Ala-CMK] (MeOSuc-AAPA-CH2Cl) as the molecule, how does the IC50 read?
The IC50 was greater than 100 µM.

How did the IC50 turn out when `COC(=O)CCC(=O)N[C@@H](C)C(=O)N[C@@H](C)C(=O)N1CCC[C@H]1C(=O)N[C@@H](CC(C)C)C(=O)CCl` [MeO-Suc-Ala-Ala-Pro-Leu-CMK] (MeOSuc-AAPL-CH2Cl) was run?
Its IC50 is 0.036 µM.

Each molecule was assayed against T1, cercarial protease (assay: biochemical). Details: not given.
Procedure: The chloromethyl ketone-derivatized peptide inhibitors were designed by us based on our computer model, and synthesized for us by Enzyme System Products (Dublin, Calif.). Stock solutions of inhibitors (25 mM) were prepared in dimethyl sulfoxide (DMSO). The rate of irreversible inactivation of the protease was followed by withdrawing a 25 μl sample at 4 time intervals after mixing 125 μl of enzyme with 5 μl of inhibitor. Kitz and Wilson's methods of analysis were used for calculation of Ki, k3, and k3 /Ki (Kitz R. & Wilson, I. B. 1962. J. Biol. Chem. 237, 3245) using MeO-Suc-Ala-Ala-Pro-Phe-Sbzl (Sbzl, benzyl thioester) as substrate. Inactivation constants for the boronic acid-derivatized peptides (MeO-Suc-Ala-Ala-Pro (D or L) boro-Phe-OH, a gift from Dr. Charles Kettner, E. I. Dupont de Nemours, Wilmington, Del.) were calculated using MeO-Suc-Ala-Ala-Pro-Phe-Sbzl as the substrate at 125 and 250 μM. Five different concentrations of each inhibitor were used per substrate concentration. The data were plotted according to Dixon and kinactivation values were extrapolated from the graph (Dixon, 1953. Biochem. J. 55, 170-171).

For `COC(=O)CCC(=O)N[C@@H](C)C(=O)N[C@@H](C)C(=O)N1CCC[C@H]1C(=O)N[C@@H](Cc1c[nH]c2ccccc12)C(=O)CCl` [MeO-Suc-Ala-Ala-Pro-Trp-CMK] (MeOSuc-AAPW-CH2Cl), which Ki is on record?
The Ki was 20 µM.

With `COC(=O)CCC(=O)N[C@@H](Cc1ccccc1)C(=O)N[C@@H](C)C(=O)N1CCC[C@H]1C(=O)N[C@@H](Cc1ccccc1)C(=O)CCl` [MeO-Suc-Phe-Ala-Pro-Phe-CMK] (MeOSuc-FAPF-CH2Cl) as the molecule, how does the Ki read?
Its Ki is 1 µM.

With `COC(=O)CCC(=O)N[C@@H](Cc1c[nH]c2ccccc12)C(=O)N[C@@H](C)C(=O)N1CCC[C@H]1C(=O)N[C@@H](CC(C)C)C(=O)CCl` [MeO-Suc-Trp-Ala-Pro-Leu-CMK] (MeOSuc-WAPL-CH2Cl) as the molecule, how does the Ki read?
The Ki was 2 µM.

`COC(=O)CCC(=O)N[C@@H](C)C(=O)N[C@@H](CCCCN)C(=O)N1CCC[C@H]1C(=O)N[C@@H](Cc1ccccc1)C(=O)CCl` [MeO-Suc-Ala-Lys-Pro-Phe-CMK] was tested. Which Ki did it give?
Its Ki is 7 µM.

With `COC(=O)CCC(=O)N[C@@H](C)C(=O)N[C@@H](C)C(=O)N1CCC[C@H]1C(=O)N[C@@H](Cc1ccccc1)C(=O)CCl` [MeO-Suc-Ala-Ala-Pro-Phe-CMK] (MeOSuc-AAPF-CH2Cl) as the molecule, how does the Ki read?
The Ki was 13 µM.

With `COC(=O)CCC(=O)N[C@@H](C)C(=O)N[C@@H](C)C(=O)N1CCC[C@H]1C(=O)N[C@@H](CC(C)C)C(=O)CCl` [MeO-Suc-Ala-Ala-Pro-Leu-CMK] (MeOSuc-AAPL-CH2Cl) as the molecule, how does the Ki read?
Its Ki is 12 µM.

Which Ki does the source give for `COC(=O)CCC(=O)N[C@@H](Cc1c[nH]c2ccccc12)C(=O)N[C@@H](C)C(=O)N1CCC[C@H]1C(=O)N[C@@H](Cc1ccccc1)C(=O)CCl` [MeO-Suc-Trp-Ala-Pro-Phe-CMK] (MeOSuc-WAPF-CH2Cl) here?
Its Ki is 12 µM.
